System: IL-1b
Assay: Mouse BMDM IL-1b Assay
Format: cell-based
Conditions: Macrophage; mouse bone marrow derived macrophages (C57BL6); 200 ng/mL LPS 3 h, compound 30 min, 5 mM ATP 45 min; IL-1b ELISA of supernatant
Experimental: Example 20: Mouse BMDM IL-1b Assay
Mouse bone marrow cells from C57BL6 tibia and femur were culture in complete Isocov's Media supplemented with 20 ng/mL MCSF (BMDM media) at a density of 50 million cells/15 cm Petri dish. Fresh media was changed every 3 days, and bone marrow derived macrophages were collected, washed, and counted on day 7. Cells were seeded into 96 well plates at a density of 5×10^4 cells per well in 100 uL of BMDM media and cultured overnight. The cells were stimulated at 37° C. with 200 ng/mL Ultrapure LPS-B5 for 3 hours before pre-diluted compounds were added. 30 minutes after compound addition, 5 mM ATP was added for the secondary stimulation for 45 minutes. After stimulation, the plates were briefly spun down, and 50 uL of supernatant was harvested from each well. ELISA for mouse IL-1b was performed with 1:10 and 1:100 diluted supernatant using pre-coated kits. IL-1b concentrations were calculated based on pre-titrated standards, and compound inhibition IC50 is generated using the Levenberg Marquardt damped lease-square method.

| Structure (SMILES) | IC50 [nM] |
| --- | --- |
| CC1(C)CC(=NO)c2cc(S(=O)(=O)NC(=O)Nc3c4c(cc5c3CCC5)CCC4)oc2C1 [Compound 49, N-((1,2,3,5,6,7-hexahydro-s-indacen-4-yl)carbamoyl)-4-(hydroxyimino)-6,6-dimethyl-4,5,6,7-tetrahydrobenzofuran-2-sulfonamide] | 100 to 1000 |
| CC1(C)CCc2oc(S(=O)(=O)NC(=O)Nc3c4c(cc5c3CCC5)CCC4)cc2C1=NO [Compound 50, N-((1,2,3,5,6,7-hexahydro-s-indacen-4-yl)carbamoyl)-4-(hydroxyimino)-5,5-dimethyl-4,5,6,7-tetrahydrobenzofuran-2-sulfonamide] | < 100 |
| Cc1c2c(c(NC(=O)NS(=O)(=O)c3cc4c(o3)CCCC4(C)O)c3c1CCC3)CCC2 (stereo not drawn) [Compound 51, 4-hydroxy-4-methyl-N-((8-methyl-1,2,3,5,6,7-hexahydro-s-indacen-4-yl)carbamoyl)-4,5,6,7-tetrahydrobenzofuran-2-sulfonamide] | < 100 |
| Cc1c2c(c(NC(=O)NS(=O)(=O)c3cc4c(o3)CCCC4O)c3c1CCC3)CCC2 (stereo not drawn) [Compound 52, 4-hydroxy-N-((8-methyl-1,2,3,5,6,7-hexahydro-s-indacen-4-yl)carbamoyl)-4,5,6,7-tetrahydrobenzofuran-2-sulfonamide] | < 100 |
| CC1(O)CCCc2oc(S(=O)(=O)NC(=O)Nc3c4c(c(C#N)c5c3CCC5)CCC4)cc21 (stereo not drawn) [Compound 53, N-((8-cyano-1,2,3,5,6,7-hexahydro-s-indacen-4-yl)carbamoyl)-4-hydroxy-4-methyl-4,5,6,7-tetrahydrobenzofuran-2-sulfonamide] | 100 to 1000 |
| N#Cc1c2c(c(NC(=O)NS(=O)(=O)c3cc4c(o3)CCCC4O)c3c1CCC3)CCC2 (stereo not drawn) [Compound 54, N-((8-cyano-1,2,3,5,6,7-hexahydro-s-indacen-4-yl)carbamoyl)-4-hydroxy-4,5,6,7-tetrahydrobenzofuran-2-sulfonamide] | 100 to 1000 |
| O=C(Nc1c2c(c(C(F)(F)F)c3c1CCC3)CCC2)NS(=O)(=O)c1cc2c(o1)CCCC2O (stereo not drawn) [Compound 55, 4-hydroxy-N-((8-(trifluoromethyl)-1,2,3,5,6,7-hexahydro-s-indacen-4-yl)carbamoyl)-4,5,6,7-tetrahydrobenzofuran-2-sulfonamide] | < 100 |
| O=C(Nc1c2c(cc3c1CCC3)CCC2)NS(=O)(=O)c1cc2c(o1)CCCC2(O)C(F)(F)F (stereo not drawn) [Compound 56, N-((1,2,3,5,6,7-hexahydro-s-indacen-4-yl)carbamoyl)-4-hydroxy-4-(trifluoromethyl)-4,5,6,7-tetrahydrobenzofuran-2-sulfonamide] | < 100 |
| CN1CCCc2oc(S(=O)(=O)NC(=O)Nc3c4c(cc5c3CCC5)CCC4)cc2C1=O [Compound 57, N-((1,2,3,5,6,7-hexahydro-s-indacen-4-yl)carbamoyl)-5-methyl-4-oxo-5,6,7,8-tetrahydro-4H-furo[3,2-c]azepine-2-sulfonamide] | 100 to 1000 |
| CC1(O)CCCc2oc(S(=O)(=O)NC(=O)Cc3c4c(cc5c3CCC5)CCC4)cc21 (stereo not drawn) [Compound 58, 2-(1,2,3,5,6,7-hexahydro-s-indacen-4-yl)-N-((4-hydroxy-4-methyl-4,5,6,7-tetrahydrobenzofuran-2-yl)sulfonyl)acetamide] | 100 to 1000 |
| CC(C)c1cccc(C(C)C)c1NC(=O)NS(=O)(=O)c1cc2c(o1)CCCC2O (stereo not drawn) [Compound 59, N-((2,6-diisopropylphenyl)carbamoyl)-4-hydroxy-4,5,6,7-tetrahydrobenzofuran-2-sulfonamide] | 100 to 1000 |
| CC(C)c1cccc(C(C)C)c1NC(=O)NS(=O)(=O)c1cc2c(o1)CCCC2(C)O (stereo not drawn) [Compound 60, N-((2,6-diisopropylphenyl)carbamoyl)-4-hydroxy-4-methyl-4,5,6,7-tetrahydrobenzofuran-2-sulfonamide] | 100 to 1000 |
| CC(C)c1cc(Cl)cc(C(C)C)c1NC(=O)NS(=O)(=O)c1cc2c(o1)CCCC2O (stereo not drawn) [Compound 61, N-((4-chloro-2,6-diisopropylphenyl)carbamoyl)-4-hydroxy-4,5,6,7-tetrahydrobenzofuran-2-sulfonamide] | 100 to 1000 |
| CC(C)c1cc(Cl)cc(C(C)C)c1NC(=O)NS(=O)(=O)c1cc2c(o1)CCCC2(C)O (stereo not drawn) [Compound 62, N-((4-chloro-2,6-diisopropylphenyl)carbamoyl)-4-hydroxy-4-methyl-4,5,6,7-tetrahydrobenzofuran-2-sulfonamide] | < 100 |
| CC(C)c1cc(F)cc(C(C)C)c1NC(=O)NS(=O)(=O)c1cc2c(o1)CCCC2O (stereo not drawn) [Compound 63, N-((4-fluoro-2,6-diisopropylphenyl)carbamoyl)-4-hydroxy-4,5,6,7-tetrahydrobenzofuran-2-sulfonamide] | 100 to 1000 |
| CC(C)c1cc(F)cc(C(C)C)c1NC(=O)NS(=O)(=O)c1cc2c(o1)CCCC2(C)O (stereo not drawn) [Compound 64, N-((4-fluoro-2,6-diisopropylphenyl)carbamoyl)-4-hydroxy-4-methyl-4,5,6,7-tetrahydrobenzofuran-2-sulfonamide] | < 100 |
| CC(C)c1ccc(Cl)c(C(C)C)c1NC(=O)NS(=O)(=O)c1cc2c(o1)CCCC2O (stereo not drawn) [Compound 65, N-((3-chloro-2,6-diisopropylphenyl)carbamoyl)-4-hydroxy-4,5,6,7-tetrahydrobenzofuran-2-sulfonamide] | < 100 |
| CC(C)c1ccc(Cl)c(C(C)C)c1NC(=O)NS(=O)(=O)c1cc2c(o1)CCCC2(C)O (stereo not drawn) [Compound 66, N-((3-chloro-2,6-diisopropylphenyl)carbamoyl)-4-hydroxy-4-methyl-4,5,6,7-tetrahydrobenzofuran-2-sulfonamide] | 100 to 1000 |
| CC(C)c1ccc(F)c(C(C)C)c1NC(=O)NS(=O)(=O)c1cc2c(o1)CCCC2O (stereo not drawn) [Compound 67, N-((3-fluoro-2,6-diisopropylphenyl)carbamoyl)-4-hydroxy-4,5,6,7-tetrahydrobenzofuran-2-sulfonamide] | 100 to 1000 |
| CC(C)c1ccc(F)c(C(C)C)c1NC(=O)NS(=O)(=O)c1cc2c(o1)CCCC2(C)O (stereo not drawn) [Compound 68, N-((3-fluoro-2,6-diisopropylphenyl)carbamoyl)-4-hydroxy-4-methyl-4,5,6,7-tetrahydrobenzofuran-2-sulfonamide] | < 100 |
| CC(C)c1cc(Br)cc(C(C)C)c1NC(=O)NS(=O)(=O)c1cc2c(o1)CCCC2O (stereo not drawn) [Compound 69, N-((4-bromo-2,6-diisopropylphenyl)carbamoyl)-4-hydroxy-4,5,6,7-tetrahydrobenzofuran-2-sulfonamide] | 100 to 1000 |
| CC(C)c1cc(Br)cc(C(C)C)c1NC(=O)NS(=O)(=O)c1cc2c(o1)CCCC2(C)O (stereo not drawn) [Compound 70, N-((4-bromo-2,6-diisopropylphenyl)carbamoyl)-4-hydroxy-4-methyl-4,5,6,7-tetrahydrobenzofuran-2-sulfonamide] | 100 to 1000 |
| CC(C)c1cc(C#N)cc(C(C)C)c1NC(=O)NS(=O)(=O)c1cc2c(o1)CCCC2O (stereo not drawn) [Compound 71, N-((4-cyano-2,6-diisopropylphenyl)carbamoyl)-4-hydroxy-4,5,6,7-tetrahydrobenzofuran-2-sulfonamide] | 100 to 1000 |
| CC(C)c1cc(C#N)cc(C(C)C)c1NC(=O)NS(=O)(=O)c1cc2c(o1)CCCC2(C)O (stereo not drawn) [Compound 72, N-((4-cyano-2,6-diisopropylphenyl)carbamoyl)-4-hydroxy-4-methyl-4,5,6,7-tetrahydrobenzofuran-2-sulfonamide] | 100 to 1000 |

From patent publication US12466800B2, “N-((1,2,3,5,6,7-hexahydro-S-indacen-4-yl)carbamoyl)-4, 5, 6, 7-tetrahydrobenzofuran-2-sulfonamide derivatives and related compounds as NLPR3 modulators for the treatment of multiple sclerosis (MS)” (Zomagen Biosciences Ltd, priority 2019, dated 2025)
